Data published in patent publication US7973069B2 (PTC Therapeutics, Inc., priority 2004, dated 2011).
Where “and” joins values, the source holds several entries; their conditions need not be identical. Equal entries are not always repeated.

Each compound was assayed on HCV replicon.
Type: cell-based
With CCn1c(-c2ccc(NC(=O)C3CC3)cc2)c(C#N)c2ccc(OCCN3CCSCC3)cc21 [Compound 1090] the IC50 was 0.5 to 2 µM. CCn1c(-c2ccc(NC(=O)C(C)(C)C)cc2)c(C#N)c2ccc(OC(F)(F)F)cc21 [Compound 915] showed an IC50 of 0.5 to 2 µM. In the case of CCOc1ccc2c(C#N)c(-c3ccc(NC(=O)OCCCCl)cc3)n(C3CCC3)c2c1 [Compound 977], the IC50 is reported as < 0.5 µM. With CCn1c(-c2cccc(NS(=O)(=O)CC)c2)c(C#N)c2ccc(OCCCN3CCOCC3)cc21 [Compound 1035] the IC50 was 0.5 to 2 µM. Compound CCCCS(=O)(=O)Nc1ccc(-c2c(C#N)c3ccc(OCCF)cc3n2CC)cc1 [Compound 953] has an IC50 of 0.5 to 2 µM. For CCOc1ccc2c(C#N)c(-c3ccc(NC(=O)OCC(C)C)cc3)n(C3CCC3)c2c1 [Compound 979], the IC50 was < 0.5 µM. With CCOc1ccc2c(C#N)c(-c3ccc(NC(=O)O[C@H](C)C4CC4)cc3)n(C3CCC3)c2c1 [Compound 2174] the IC50 was < 0.5 µM. CCn1c(-c2ccc(N)c(F)c2)c(C#N)c2ccc(OC)cc21 [Compound 880] was tested, and the IC50 was 0.5 to 2 µM. Work on CCOC(=O)Nc1ccc(-c2c(C#N)c3cc(OCc4ccccc4)ccc3n2CC)cc1 [Compound 925] yielded an IC50 of 0.5 to 2 µM. CCn1c(-c2ccc(NC(=O)OC)c(C)c2)c(C#N)c2ccc(OC)cc21 [Compound 963] was tested, and the IC50 was 0.5 to 2 µM. For CCOP(=O)(Nc1ccc(-c2c(C#N)c3ccc(OC)cc3n2C2CCC2)cc1)OCC [Compound 1081], the IC50 was 0.5 to 2 µM. For CCOc1ccc2c(c1)c(C#N)c(-c1ccc(NC(=O)OC(C)CC)cc1)n2C1CCC1 (centres unmarked) [Compound 1323], the IC50 was < 0.5 µM. Work on CCn1c(-c2ccc(NC(=O)NC(C)C)cc2)c(C#N)c2ccc(OC(F)F)cc21 [Compound 1137] yielded an IC50 of 0.5 to 2 µM. For CC(C)NC(=O)Nc1ccc(-c2c(C#N)c3ccc(OCCN4CCC4)cc3n2C2CCC2)cc1 [Compound 1316], the IC50 was < 0.5 µM. With CCn1c(-c2ccc(NC(=O)OCCF)cc2)c(C#N)c2ccc(OCCCN3CCOCC3)cc21 [Compound 1113] the IC50 was 0.5 to 2 µM. COCn1c(-c2ccc(N3CCCS3(=O)=O)cc2)c(C#N)c2ccc(OC)cc21 [Compound 990] showed an IC50 of 0.5 to 2 µM. In the case of CCn1c(-c2ccc(NS(=O)(=O)C3CC3)cc2)c(C#N)c2ccc(OC(F)F)cc21 [Compound 929], the IC50 is reported as < 0.5 µM. CCCNC(=O)Nc1ccc(-c2c(C#N)c3ccc(OCc4cccnc4)cc3n2CC)cc1 [Compound 1185] was tested, and the IC50 was < 0.5 µM. With CCOc1ccc2c(C#N)c(-c3ccc(NC(=O)OC4(C)CCCC4)cc3)n(C3CCC3)c2c1 [Compound 1209] the IC50 was < 0.5 µM. COCCn1c(-c2ccc(N3CCCS3(=O)=O)cc2)c(C#N)c2ccc(OC(F)(F)F)cc21 [Compound 906] was tested, and the IC50 was 0.5 to 2 µM. For CC(C)OC(=O)Nc1ccc(-c2c(C#N)c3ccc(Oc4ncccn4)cc3n2C2CCC2)cc1F [Compound 2336], the IC50 was < 0.5 µM. With CCCCn1c(-c2ccc(NC(=O)NC(C)C)cc2)c(C#N)c2ccc(OCC)cc21 [Compound 1017] the IC50 was < 0.5 µM. CCn1c(-c2ccc(N3CCNC3=O)cc2)c(C#N)c2ccc(OCCCN3CCCC3)cc21 [Compound 1085] was tested, and the IC50 was < 0.5 µM. For CCCOc1ccc2c(C#N)c(-c3ccc(NC(=O)OC4CCC4)cc3)n(C(C)C)c2c1 [Compound 1247], the IC50 was < 0.5 µM. Compound CCn1c(-c2ccc(NS(=O)(=O)CC)c(C)c2)c(C#N)c2ccc(OC)cc21 [Compound 960] has an IC50 of 0.5 to 2 µM. CCCCNC(=O)Nc1ccc(-c2c(C#N)c3cc(OC)ccc3n2CC)cc1 [Compound 1012] showed an IC50 of 0.5 to 2 µM. With CCOCCOC(=O)Nc1ccc(-c2c(C#N)c3ccc(OCC)cc3n2C2CCC2)cc1 [Compound 1250] the IC50 was < 0.5 µM. With CCn1c(-c2ccc(NS(=O)(=O)C3CC3)cc2)c(C#N)c2ccc(OCCCN3CCOCC3)cc21 [Compound 1117] the IC50 was 0.5 to 2 µM. For C=CCOC(=O)Nc1ccc(-c2c(C#N)c3ccc(OC(F)F)cc3n2CC)cc1 [Compound 1135], the IC50 was < 0.5 µM. With CCn1c(-c2ccc(NC(=O)OC(C)C)cc2)c(C#N)c2ccc(OCCF)cc21 [Compound 946] the IC50 was < 0.5 µM. CCCCNC(=O)Nc1ccc(-c2c(C#N)c3ccc(OCC)cc3n2C(C)C)cc1 [Compound 1101] was tested, and the IC50 was < 0.5 µM. With CCCCn1c(-c2cccc(NC(=O)OCC)c2)c(C#N)c2ccc(OCC)cc21 [Compound 1020] the IC50 was < 0.5 µM and 0.5 to 2 µM. In the case of COC(=O)c1ccc2c(C#N)c(-c3ccc(NC(=O)OC(C)C)cc3)n(C3CCC3)c2c1 [Compound 1300], the IC50 is reported as < 0.5 µM. Compound COCCN(C)CCOc1ccc2c(C#N)c(-c3ccc(NC(=O)NC(C)C)cc3)n(C3CCC3)c2c1 [Compound 1321] has an IC50 of 0.5 to 2 µM. With CCS(=O)(=O)Nc1ccc(-c2c(C#N)c3ccc(OC)cc3n2COC)cc1 [Compound 988] the IC50 was 0.5 to 2 µM. CCn1c(-c2ccc(NC(=O)OCCCl)cc2)c(C#N)c2ccc(OCCCN3CCOCC3)cc21 [Compound 1116] gave an IC50 of 0.5 to 2 µM. In the case of CCn1c(-c2cccc(N3CCOC3=O)c2)c(C#N)c2ccc(OCCCN3CCOCC3)cc21 [Compound 1069], the IC50 is reported as 0.5 to 2 µM. In the case of CCNc1ccc(-c2c(C#N)c3ccc(OCC)cc3n2C2CC2)cc1 [Compound 1311], the IC50 is reported as < 0.5 µM. CCCOC(=O)Nc1ccc(-c2c(C#N)c3ccc(OC(F)(F)F)cc3n2CC)cc1 [Compound 889] showed an IC50 of 0.5 to 2 µM. Compound CCn1c(-c2ccc(N)cc2)c(C#N)c2ccc(OC(F)F)cc21 [Compound 870] has an IC50 of 0.5 to 2 µM. Work on CCCOC(=O)Nc1ccc(-c2c(C#N)c3ccc(OC(F)F)cc3n2CC)cc1 [Compound 1132] yielded an IC50 of 0.5 to 2 µM. In the case of CC(C)NC(=O)Nc1ccc(-c2c(C#N)c3ccc(OCCCn4ccnc4)cc3n2C2CCC2)cc1 [Compound 1308], the IC50 is reported as < 0.5 µM. Work on CCN1CCN(c2ccc(-c3c(C#N)c4ccc(OC)cc4n3CC)cc2)S1(=O)=O [Compound 1110] yielded an IC50 of 0.5 to 2 µM. With CC(C)OC(=O)Nc1ccc(-c2c(C#N)c3ccc(Oc4ncccn4)cc3n2C2CCC2)cc1 [Compound 2151] the IC50 was < 0.5 µM. CCCCNC(=O)Nc1ccc(-c2c(C#N)c3ccc(OC(F)F)cc3n2CC)cc1 [Compound 1138] showed an IC50 of 0.5 to 2 µM. With CCOc1ccc2c(C#N)c(-c3ccc(NP(=O)(OCC)OCC)cc3)n(C3CCC3)c2c1 [Compound 936] the IC50 was < 0.5 µM. Compound CCn1c(-c2ccc(NC(=O)OC(C)C)cc2)c(C#N)c2cc3c(cc21)OCO3 [Compound 1040] has an IC50 of 0.5 to 2 µM. With CCn1c(-c2ccc(NC(=O)NC(C)C)cc2)c(C#N)c2ccc(OCCF)cc21 [Compound 956] the IC50 was < 0.5 µM. CCOc1ccc2c(C#N)c(-c3ccc(NC(=O)OC4CCOCC4)cc3)n(C3CCC3)c2c1 [Compound 1216] was tested, and the IC50 was 0.5 to 2 µM. CCOc1ccc2c(c1)c(C#N)c(-c1ccc(NC(=O)OC(C)C3CC3)cc1)n2C1CCC1 (centres unmarked) [Compound 1295] was tested, and the IC50 was < 0.5 µM. Compound CCOc1ccc2c(C#N)c(-c3ccc(N)cc3)n(C3CC3)c2c1 [Compound 1245] has an IC50 of 0.5 to 2 µM. For CCCS(=O)(=O)Nc1ccc(-c2c(C#N)c3ccc(OCC)cc3n2CC2CCC2)cc1 [Compound 1170], the IC50 was 0.5 to 2 µM. CC1CCN(CCOc2ccc3c(C#N)c(-c4ccc(NC(=O)OC(C)C)cc4)n(C4CCC4)c3c2)CC1 [Compound 1272] was tested, and the IC50 was < 0.5 µM. In the case of CC(C)NC(=O)Nc1ccc(-c2c(C#N)c3ccc(OCc4cccnc4)cc3n2C2CCC2)cc1 [Compound 1212], the IC50 is reported as < 0.5 µM. CCCS(=O)(=O)Nc1ccc(-c2c(C#N)c3ccc(OCC)cc3n2C2CCC2)cc1 [Compound 933] was tested, and the IC50 was 0.5 to 2 µM. For N#Cc1c(-c2ccc(NC(=O)OC3CCC3)cc2)n(C2CCC2)c2cc(OCC3CCCO3)ccc12 (centres unmarked) [Compound 1282], the IC50 was < 0.5 µM. For CCOc1ccc2c(C#N)c(-c3ccc(NC(=O)CC)cc3)n(CC)c2c1 [Compound 896], the IC50 was 0.5 to 2 µM. CCCn1c(-c2ccc(NS(=O)(=O)CC)cc2)c(C#N)c2ccc(OCc3ccccc3)cc21 [Compound 922] showed an IC50 of 0.5 to 2 µM. For C[C@@H](OC(=O)Nc1ccc(-c2c(C#N)c3ccc(OCCF)cc3n2C2CCC2)cc1)C1CC1 [Compound 2326], the IC50 was < 0.5 µM. For CCCCOC(=O)Nc1ccc(-c2c(C#N)c3cc(OCC)ccc3n2C2CCC2)cc1 [Compound 1197], the IC50 was 0.5 to 2 µM and < 0.5 µM. CCCn1c(-c2ccc(NS(=O)(=O)CCC)cc2)c(C#N)c2ccc(OCc3ccccc3)cc21 [Compound 923] showed an IC50 of 0.5 to 2 µM. In the case of CCn1c(-c2ccc(N3CCNC3=O)cc2)c(C#N)c2ccc(OCCCCl)cc21 [Compound 1051], the IC50 is reported as 0.5 to 2 µM. Work on CCn1c(-c2ccc(N(C)S(C)(=O)=O)cc2)c(C#N)c2ccc(C(F)(F)F)cc21 [Compound 1002] yielded an IC50 of 0.5 to 2 µM. CCn1c(-c2cccc(NC(=O)NCCCl)c2)c(C#N)c2ccc(OCCCN3CCOCC3)cc21 [Compound 1036] gave an IC50 of 0.5 to 2 µM. With CCOC(=O)Nc1ccc(-c2c(C#N)c3ccc(OCC)cc3n2C2CCC2)cc1 [Compound 971] the IC50 was < 0.5 µM. CCCCNC(=O)Nc1cccc(-c2c(C#N)c3ccc(OCC)cc3n2CCCC)c1 [Compound 1023] showed an IC50 of 0.5 to 2 µM. In the case of CCNC(=O)Nc1cccc(-c2c(C#N)c3ccc(OCCCN4CCCC4)cc3n2CC)c1 [Compound 1045], the IC50 is reported as < 0.5 µM. CCOc1ccc2c(C#N)c(-c3ccc(N)cc3)n(C3CCC3)c2c1 [Compound 939] gave an IC50 of 0.5 to 2 µM. For CCCn1c(-c2ccc(NC(=O)OC(C)C)cc2)c(C#N)c2ccc(OCC)cc21 [Compound 1056], the IC50 was < 0.5 µM. CCOc1ccc2c(C#N)c(-c3cccc(NC(=O)OCC(C)C)c3)n(C3CCC3)c2c1 [Compound 1037] gave an IC50 of 0.5 to 2 µM. With CCCCOC(=O)Nc1ccc(-c2c(C#N)c3ccc(OC)cc3n2C2CCC2)cc1 [Compound 1077] the IC50 was < 0.5 µM. In the case of CCCOC(=O)Nc1ccc(-c2c(C#N)c3ccc(OCC)cc3n2CC2CC2)cc1 [Compound 1149], the IC50 is reported as < 0.5 µM. In the case of CCOc1ccc2c(c1)c(C#N)c(-c1ccc(NC(=O)OC(C)C3CC3)cc1)n2C1CCC1 (centres unmarked) [Compound 1296], the IC50 is reported as 0.5 to 2 µM. CC#CCOC(=O)Nc1ccc(-c2c(C#N)c3ccc(OCC)cc3n2C2CCC2)cc1 [Compound 976] gave an IC50 of 0.5 to 2 µM. With N#Cc1c(-c2ccc(NC(=O)OC3CCCC3)cc2)n(C2CCC2)c2cc(OCc3cccnc3)ccc12 [Compound 1219] the IC50 was < 0.5 µM. For CCOC(=O)Nc1ccc(-c2c(C#N)c3cc(OCC)ccc3n2C2CCC2)cc1 [Compound 1193], the IC50 was < 0.5 µM. CCOc1ccc2c(C#N)c(-c3ccc(NC(=O)OCC(C)C)cc3)n(CC3CC3)c2c1 [Compound 1151] was tested, and the IC50 was < 0.5 µM. With C[C@@H](OC(=O)Nc1ccc(-c2cc3ccc(Oc4ncccn4)cc3n2C2CCC2)cc1)C1CC1 [Compound 2341] the IC50 was < 0.5 µM. For CCOc1ccc2c(C#N)c(-c3ccc(NC(=O)NC(C)CC)cc3)n(C3CCC3)c2c1 (centres unmarked) [Compound 1159], the IC50 was < 0.5 µM. In the case of COc1ccc2c(C#N)c(-c3ccc(NC(=O)NC4CCCC4)cc3)n(C3CCC3)c2c1 [Compound 1106], the IC50 is reported as < 0.5 µM.
